Test results from US20250368625A1, “PIPERAZINES” (Grünenthal GmbH, priority 2024, published 2025).

Target: T1, human SSTR4 (Homo sapiens, UniProt P31391)
T1 construct: expressed in transfected cells; host or cells: CHO-K1
Assay: hSSTR4 cAMP assay (cAMP accumulation, LANCE Ultra cAMP kit, CHO-K1 human SSTR4 Gi cell line)
Type: cell-based
Settings: functional agonism, forskolin 10 μM stimulated CHO-K1 human SSTR4 Gi cells, 30 min at 25° C., at least duplicate, averaged; read-out: hSSTR4 EC50
Summary of the method: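 CHO-K1 cells expressing human SSTR4 (Gi), pre-cultured 18-20 h or thawed and used directly, stimulated with 10 μM forskolin plus test agonist in concentration series, 30 min at 25° C. Lysate cAMP read by TR-FRET (Eu-cAMP tracer/ULight-anti-cAMP, 1 h, 25° C). Normalized to forskolin-only and forskolin+100 nM SST14 controls, 4-parameter fit; ≥duplicate, averaged.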

T1 sequence (P31391 whole entry): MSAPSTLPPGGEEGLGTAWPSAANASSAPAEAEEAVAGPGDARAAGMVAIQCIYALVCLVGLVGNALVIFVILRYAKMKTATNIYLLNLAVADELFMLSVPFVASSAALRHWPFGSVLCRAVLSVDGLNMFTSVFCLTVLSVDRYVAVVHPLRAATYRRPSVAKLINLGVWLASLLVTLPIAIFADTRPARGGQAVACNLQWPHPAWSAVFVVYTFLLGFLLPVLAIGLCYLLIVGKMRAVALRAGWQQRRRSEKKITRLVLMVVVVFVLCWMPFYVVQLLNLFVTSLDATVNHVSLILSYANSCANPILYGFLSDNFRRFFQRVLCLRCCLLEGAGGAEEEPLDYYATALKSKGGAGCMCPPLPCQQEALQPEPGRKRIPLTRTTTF

SMILES | EC50 [nM]
Cc1cccn2c(C(C)(C)NC(=O)[C@@H]3CNCCN3CC3COC3)ncc12 [SC-042, (S)-N-(2-(8-methylimidazo[1,5-a]pyridin-3-yl)propan-2-yl)-1-(oxetan-3-ylmethyl)piperazine-2-carboxamide] | 1.3
Cc1cccn2c(C(C)(C)NC(=O)[C@@H]3CNCCN3)ncc12 [SC-015, (S)-N-(2-(8-methylimidazo[1,5-a]pyridin-3-yl)propan-2-yl)piperazine-2-carboxamide] | 9.5
Cc1cccn2c(C(C)(C)NC(=O)[C@@H]3CNCCN3CC3CC(F)(F)C3)ncc12 [SC-089, (S)-1-((3,3-difluorocyclobutyl)methyl)-N-(2-(8-methylimidazo[1,5-a]pyridin-3-yl)propan-2-yl)piperazine-2-carboxamide] | 0.55
Cc1cccc2c(C(C)(C)NC(=O)[C@@H]3CNCCN3C(C)C)n[nH]c12 [SC-040, (S)-1-isopropyl-N-(2-(7-methyl-1H-indazol-3-yl)propan-2-yl)piperazine-2-carboxamide] | 0.39
